Data published in US9598448B2, “Osmium (II) arene imino anti-cancer complexes” (University of Warwick, priority 2010, dated 2017).
“Also recorded” adds a separate entry of the source.

Experiments:
[1] = system: Balb/c immunodeficient nude mice bearing HCT-116 tumours; test: Evaluation of in vivo toxicity in nude mouse HCT-116 xenograft model; conditions: i.v. day 0, doses from 2 up to 40 mg kg^−1, monitored 15 days
Procedure: Female Balb/c immunodeficient nude mice (Harlan, Loughborough, UK) aged 6-12 weeks were used. Mice received Harlan 2018 diet (Harlan) and water ad libitum. Mice were kept in cages in an air-conditioned room with regular alternating cycles of light and darkness. All animal procedures were carried out under a project license issued by the UK Home Office and UKCCCR guidelines (Workman P, Twentyman P, Balkwill F et al: United Kingdom Co-ordinating Committee on Cancer Research (UKCCCR) Guidelines for the Welfare of Animals in Experimental Neoplasia (Second Edition). Br J Cancer 77: 1-10, 1998) were followed throughout.
HCT-116 was used in the study. Tumours were excised from a donor animal, placed in sterile physiological saline containing antibiotics and cut into small fragments of approximately 2 mm^3. Under brief general inhalation anaesthesia, fragments were implanted in the […] abdominal flank of each mouse using a trocar. Once the tumours could accurately be measured using callipers (mean tumour volume of approximately 50 mm^3), treatment commenced. Complexes 3 and 6 were solubilised in 10% DMSO; 5% Tween-80; 85% saline and were administered intravenously to groups of 2 mice on day 0. Animals were weighed frequently and monitored for any deleterious effects over a period of 15 days.

[2] = Stability and hydrolysis (1H NMR, MS, UV-vis); assay type: physicochemical; conditions: 310 K, 24 h, 95% deuterated phosphate buffer (10 mM)/5% MeOD-d4
[3] = system: HCT-116 colon adenocarcinoma s.c. xenograft model; test: In vivo efficacy in HCT-116 s.c. xenograft model
MCF-7 breast = test: MTT growth inhibition assay, MCF-7; assay type: cell-based, human; conditions: 96 h
Procedure: (§1) Tumor cell growth inhibition was assessed using the MTT assay.^13 2×10^3 cells were inoculated into a 96-well plate and incubated overnight at 37° C. in a humidified atmosphere containing 5% CO2. Complexes were solubilised in DMSO as above, and then diluted in complete cell culture medium to give a broad range of concentrations. Cisplatin was included in the screen as a comparator. Medium was removed from each well and replaced with complex or control solutions, and the plates then incubated for a further 96 hours. After 96 h culture medium was removed and 200 μL of 0.5 mg mL^−1 MTT solution (Sigma) in complete medium added to each well. Following further 4 h incubation, the solution was removed from each well and 150 μL of DMSO (Sigma) added to solubilise the formazan crystals resulting from MTT conversion. Absorbance values for the resulting solutions were read at 550 nm on a microplate reader and cell survival calculated as the absorbance of treated cells divided by the control. Results were expressed in terms of IC50 values (i.e. concentration of compound required to kill 50% of cells) and all experiments were performed in triplicate.
(§2) The following human cancer cell lines were cultured in RPMI 1640 cell culture medium supplemented with 1 mM sodium pyruvate, 2 mM L-glutamine and 10% fetal bovine serum (all from Sigma): A549 non-small cell lung, HCT-116 colon, MCF-7 breast, PC-3 prostate (all from LGC Promochem, Teddington, UK), A2780/cis ovarian (cisplatin-resistant) and RT-112 bladder (both from ECACC, Salisbury, UK).

[4] = system: human ovarian A2780 cancer cells; test: SRB growth inhibition assay, A2780; assay type: cell-based; conditions: SRB; 24 h exposure, 72 h recovery; read-out: IC50 values for azopyridine complexes against A2780 ovarian cancer cells
Procedure: The concentrations of the osmium complexes that inhibit 50% of the proliferation of human ovarian A2780 cancer cells were determined by sulforhodamine B test. A2780 cells were seeded in 96-well plate (Falcon) at 5000 cells/well, after the incubation for 48 h, The complexes were solubilised in DMSO (Sigma) to provide 10 mM stocks. The stocks were serially diluted by cell culture media to give concentrations four-fold than the final concentrations for the assay. The dilutions of complexes in cell culture media were added to the 96-well plate with cells in triplicates to achieve the final concentrations. The final DMSO concentration in each well was no more than 1% (v/v). The complexes were removed after 24 h. The cells were washed with Phosphate Buffered Saline once and cell culture media was added 150 μL/well. The cells were recovered for 72 h. The surviving cells were fixed by adding 150 μL/well of 50% (w/v) trichloroacetic acid and incubated for 1 h at 277 K (277 K). The plates were washed with tap water three times and dried under a flow of warm air, 0.4% sulforhodamine B (Sigma) solution 100 μL/well followed by washing with 1% acetic acid five times and dried under a flow of warm air. The dye was dissolved in 10 mM Tris buffer […] The absorbance of each well was obtained by the Multiskan Ascent plate reader (Labsystems) at 540 nm. The absorbance value of SRB in each well is directly proportional to the cell number. Then the absorbance can be plotted against concentration and the IC50 determined by using Origin software.
The cytotoxicity studies were carried out as described previously above.

PC-3 prostate = test: MTT growth inhibition assay, PC-3; assay type: cell-based, human; conditions: 96 h
Procedure: as §1, §2

RT-112 bladder = test: MTT growth inhibition assay, RT-112; assay type: cell-based, human; conditions: MTT, 96 h
Procedure: as §1, §2

[5] = system: microtubules in A2780 human ovarian cancer cell line; test: Immunofluorescence of microtubules by confocal microscopy; assay type: cell-based; conditions: 24 h treatment, 1 μM
Procedure: A2780 Cells were seeded on Lab-Tek™ Chamber Slides (Thermo Scientific Nunc) 10,000 cells/chamber, after 24 h incubation, osmium compound [Os(η^6-bip)(2-F-Azpy)I]PF6 at different concentrations were added and incubate for another 24 h. Cells were fixed with 4% formaldehyde in PBS (20 min, 310 K), then rinsed with PBS (3×2 mL×2 min), and permeabilized with 0.1% Triton X-100 solution (PBS solution) for 15 min at ambient temperature. The cells were blocked with blocking buffer (2 mg/mL BSA, overnight at […]), and then, the cell monolayers were incubated (1 h, 310 K) with monoclonal anti-α-tubulin-Alexa 488 (4 μg/mL) (Invitrogen Molecular Probles, Catalog No. 32-2588). After the incubation, the cells were washed with PBS and the immunofluorescence was detected using a Leica SP5 fluorescence confocal microscope, with 100× objective.

colon cancer OoLO 205 = test: NCI 60-cell line screen, colon cancer line; assay type: cell-based, human; conditions: colon cancer OoLO 205, 48 h
Procedure: (§3) The cells were treated for 48 h at five concentrations ranging from 0.01 to 100 μM. Three endpoints were calculated: GI 50 (the concentration inhibits cell growth by 50%): […]

HCT-116 colon = test: MTT growth inhibition assay, HCT-116; assay type: cell-based, human; conditions: 96 h
Procedure: as §1, §2

Leukemia MOLT-4 = test: NCI 60-cell line screen, MOLT-4; assay type: cell-based, human; conditions: Leukemia MOLT-4, 48 h
Procedure: as §3

[6] = system: A2780/cis ovarian (cisplatin-resistant); test: MTT growth inhibition assay, A2780/cis; assay type: cell-based, human; conditions: 96 h
Procedure: as §1, §2

[7] = 40.0 mg kg^−1, single intravenous injection

For “[(η^6-p-cym)Os(Azpy-NMe2)I]PF6 [Complex 6]”, the “toxicity / deleterious effects” value [1] was “no evident toxicity; also recorded: negligible deleterious effects”, the “stability and hydrolysis in aqueous solution” value [2] was “remained stable and did not hydrolyze” and the “Maximum % weight loss” value [3, 7] was 8%. The “Median tumour doubling time” value [3, 7] was 6.2 days, the “day of maximum % weight loss” value [3, 7] was 1 days and the toxicity ([3]; single i.v. 40 mg/kg) was “negligible toxicity”. For the same substance, the tumour growth delay ([3]; single i.v. 40 mg/kg, compared to the untreated control (p<0.01)) was “statistically significant tumour growth delay”, the IC50 (MCF-7 breast) was 79 nM and the IC50 [4] was 200 nM. For the same substance, the IC50 (PC-3 prostate) was 600 nM, the IC50 (RT-112 bladder) was < 300 nM and the “inhibition of microtubule formation in cells” value [5] was “inhibition forming microtubules were observed”. The GI50 (colon cancer OoLO 205) was < 50 nM, the IC50 (HCT-116 colon) was < 300 nM and the GI50 (Leukemia MOLT-4) was < 50 nM. The IC50 [6] was < 300 nM.
